Measurements reported in patent publication US10906881B2, “Inhibitors of arginine gingipain” (priority 2015, dated 2021).
Entries after “also recorded” stand apart in the source; their conditions may differ.

Key:
[1] = molecular target: T1, RgpB (Porphyromonas gingivalis, UniProt P95493); experiment: RgpB fluorogenic inhibition assay; assay type: biochemical
T1 construct: 0.02 nM RgpB, isolated from culture of Porphyromonas gingivalis; made in house; host or cells: Porphyromonas gingivalis culture (native enzyme purified from the bacterium, not recombinant)
Experimental: The capacities of compounds of the present invention to inhibit the activity of RgpB were measured in a fluorogenic assay similar to those described in Barret Biochemical Journal. 1980, 187(3), 909. The specific assay conditions were as follows. Buffer: pH=7.5, 100 mM Tris-HCl, 75 mM NaCl, 2.5 mM CaCl2, 10 mM cysteine, 1% DMSO after all additions. Protein: 0.02 nM RgpB, isolated from culture of Porphyromonas gingivalis, as described in Pike et al. J Biol. Chem. 1994, 269(1), 406, and Potempa and Nguyen. Current Protocols in Protein Scienc. 2007, 21.20.1-21.20.27. Fluorogenic substrate: 10 uM Boc-Phe-Ser-Arg-MCA. Time=90 minutes. Temperature=37° C. Each compound: 10 concentrations, starting at either 100 uM or 100 nM, with lower concentrations generated by serial 3-fold dilutions. By testing a range of concentrations for each compound, the concentration required to inhibit the activity of RgpB by 50% (the “IC50”) was determined. Under the described assay conditions, signal-to-noise was excellent, and Z factor was greater than 0.7.
(§1) The inhibitory of activity of compounds described herein was tested against Kgp, RgpB, RgpA, and trypsin.

[2] = molecular target: T2, trypsin (Bos taurus, UniProt P00760); experiment: Trypsin inhibition assay; assay type: biochemical
T2 construct: gene PRSS1
T2 sequence (P00760 24-246): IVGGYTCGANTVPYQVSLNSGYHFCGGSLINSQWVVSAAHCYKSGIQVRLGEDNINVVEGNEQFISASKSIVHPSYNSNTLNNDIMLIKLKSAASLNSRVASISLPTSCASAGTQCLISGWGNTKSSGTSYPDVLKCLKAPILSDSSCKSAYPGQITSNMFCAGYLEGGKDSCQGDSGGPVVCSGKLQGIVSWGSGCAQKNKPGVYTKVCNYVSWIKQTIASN
Experimental: as §1

[3] = molecular target: RgpA (Porphyromonas gingivalis, UniProt B2RM93); experiment: RgpA inhibition assay; assay type: biochemical
Experimental: as §1

[4] = molecular target: Kgp (Porphyromonas gingivalis, UniProt B2RLK2); experiment: Kgp inhibition assay; assay type: biochemical
Experimental: as §1

[5] = Plasma pharmacokinetics after subcutaneous delivery; assay type: in vivo; conditions: 10 mg/kg; for AUC(0-t): male, CD1, mouse, plasma, sc, mice
Experimental: Compound 13 was dissolved at a concentration of 1 mg/mL in water containing carboxymethylcellulose (2% w/w) or Pluronic F127 (25% w/w). Solutions were kept on ice, and 10 mg/kg of each solution was administered to 3 male CD1 mice. Plasma was collected at 7 time points. Concentrations in plasma were determined by HPLC with tandem mass (MS/MS) detection.
Plasma samples were precipitated with a mixture containing 80% acetonitrile. Samples were further diluted with water containing 0.1% formic acid. Chromatographic separation was performed on a reversed phase column (2.1×50 mm, particle size: […], Xbridge C8, Waters, USA). Components were separated using a linear gradient of acetonitrile containing 0.1% formic acid in ultrapurified H2O containing 0.1% formic acid (flow rate 0.2 mL/min).
MS analyses were performed using an API 5500 QTRAP system having an API 5500 QTRAP detector and a Turbo Ion Spray interface (both from Applied Biosystems, USA). The acquisitions were performed in positive ionization mode, with optimized settings for the analytes. The instrument was operated in multiple-reaction-monitoring (MRM) mode, the following transition was used to quantify compound 13; 433.4->112.1. Data were calibrated and quantified using the Analyst™ data system (Applied Biosystems) using the response of the analyte versus the concentration.

[6] = tested on: SH-SY5Y neuroblastoma cells; experiment: Rescue of neuroblastoma cells from P. gingivalis toxicity; assay type: cell-based; conditions: 4 μg/mL, P. gingivalis ATCC BAA-308, MOI 1:1000, 48 hours
Experimental: SH-SY5Y neuroblastoma cells were cultured based on established methods [Saberi S., et al. Cell Mol Neurobiol 2013. 33: 5 747-751]. The strain P. gingivalis ATCC BAA-308 was streaked onto a brain heart infusion agar (BHA), and the plate was incubated for 72 h at 37° C. in an anaerobic workstation with an atmosphere of 80% N2, 10% CO2, and 10% H2. The plates were removed from the anaerobic work station for testing and processed under ambient atmosphere. The bacteria were harvested and suspended in complete medium-Pen/Strep (without Pen/Strep). The turbidity of the suspension was adjusted to 0.5, as measured using a MicroScan® Turbidity Meter (Siemens), which is equivalent to ˜6×10^8 cfu/mL (for MOI 1:1000) and incubated with the cells for 48 hours. 4 μg/mL of Compound 13 was added to the media at the time of introduction of the bacteria. Results were recorded using a digital microscope camera (FIG. 5). […] Other compounds of the invention are tested as described for Compound 13.

[7] = tested on: P gingivalis W83; experiment: P. gingivalis infection of brain tissue in vivo (qPCR); design: species or system BalbC mice; conditions: BID subcutaneously in 25% Pluronic F127, day 35-70
Text: BalbC mice were given a tooth ligature and infected by oral lavage with P gingivalis W83 (1×10^9 CFU in 2% carboxymethyl cellulose) or vehicle for 6 weeks. Compound 13 was delivered BID subcutaneously in 25% Pluronic F127 on day 35-70. On day 70, mice were sacrificed and perfused with PBS prior to dissection. DNA was isolated from one quarter of the brain using a DNEasy Blood & Tissue Kit (Qiagen). Forward and reverse primers for RgpB were used for qPCR to quantify P. gingivalis DNA in the brain tissue. The forward primer sequence was 5′-[…]-3′ (SEQ ID NO: 1). The reverse primer sequence was 5′-[…]-3′ (SEQ ID NO: 2). The probe sequence was 5′-6-FAM-[…]-TAMRA-3′ (SEQ ID NO: 3).

[8] = tested on: gingipain-containing P. gingivalis supernatant; experiment: Degradation of human collagen by P. gingivalis supernatant (SDS-PAGE); assay type: biochemical, Porphyromonas gingivalis; conditions: 50 μM inhibitor, 1h, pH 7.5
Experimental: P. gingivalis was grown to exponential phase (OD 600 nm=0.6) in a Coy's anaerobic chamber under 5% hydrogen, 10% carbon dioxide, and […]. The bacteria were centrifuged at 5000×g for 10 min at 4° C., and then the supernatant was collected. The supernatant was concentrated by centrifugation at 5000×g for 60 min at 4° C. min using Corning Spin-X UF-20 concentrator tubes and then at 17,000×g for 30 min using Corning Spin-X UF500 concentrator tubes. 10 μg of Collagen type I was incubated with 0.6 μg of P. gingivalis culture supernatant for 1h in the absence or presence of 50 μM Rgp inhibitor (Compound 13, Table 1), 50 μM Kgp inhibitor ((S)—N-(6-guanidino-2-oxo-1-(2,3,5,6-tetrafluorophenoxy)hexan-3-yl)cyclopentanecarboxamide; described in U.S. Pat. Appl. Pub. No. 2016/0096830), or both. Reaction mixtures contained 5 mM cysteine, 20 mM sodium phosphate buffer, pH 7.5. After incubation, the reaction was terminated by the addition of protease inhibitor cocktail (Sigma). The samples were then analyzed by SDS-polyacrylamide gel electrophoresis. Following separation, the gels were stained with Biosafe Coomassie (Bio-Rad).

[9] = oral RTV 15 minutes prior to Kyt-36; from U.S. patent application Ser. No. 14/875,416; cited from earlier work

IC50 [2]	Structure (SMILES)	IC50 [1]	also measured
	N=C(N)NCCCC(NC(=O)[C@H]1CC[C@@H](N)C1)C(=O)c1nc2ccccc2s1 (single isomer, unassigned) [Compound 9]	< 0.002 µM	
	CC[C@H](NC(C)=O)C(=O)NC(CCCNC(=N)N)C(=O)c1nc2ccccc2s1 (single isomer, unassigned) [Compound 12]	< 0.002 µM	
	N=C(N)NCCC[C@H](NC(=O)C1CCCC1)C(=O)c1nc2ccccc2s1 [Compound 1, N-[(1S)-1-(1,3-benzothiazole-2-carbonyl)-4-guanidino-butyl]cyclopentanecarboxamide]	< 0.001 µM	
> 0.35 µM	N=C(N)NCCC[C@H](NC(=O)c1ccccc1C(F)(F)F)C(=O)c1nc2ccccc2s1 [Compound 4, N-[(1S)-1-(1,3-benzothiazole-2-carbonyl)-4-guanidino-butyl]-2-(trifluoromethyl)benzamide]		
> 1 µM	N=C(N)NCCC[C@H](NC(=O)CCCN)C(=O)c1nc2ccccc2s1 [Compound 5, 4-amino-N-[(1S)-1-(1,3-benzothiazole-2-carbonyl)-4-guanidino-butyl]butanamide]		
> 1 µM	N=C(N)NCCC[C@H](NC(=O)[C@H]1CCCNC1)C(=O)c1nc2ccccc2s1 [Compound 6, (3S)—N-[(1S)-1-(1,3-benzothiazole-2-carbonyl)-4-guanidino-butyl]piperidine-3-carboxamide]		
> 1 µM	N=C(N)NCCC[C@@H](NC(=O)[C@H]1CCCNC1)C(=O)c1nc2ccccc2s1 [Compound 7, (3S)—N-[(1R)-1-(1,3-benzothiazole-2-carbonyl)-4-guanidino-butyl]piperidine-3-carboxamide]		
> 1 µM	N=C(N)NCCC[C@H](NC(=O)[C@H]1CCNC1)C(=O)c1nc2ccccc2s1 [Compound 8, (3S)—N-[1-(1,3-benzothiazole-2-carbonyl)-4-guanidino-butyl]pyrrolidine-3-carboxamide]		
	N=C(N)NCCC[C@H](NC(=O)C1CCCC1)C(=O)COc1c(F)c(F)cc(F)c1F [Compound 13, N-[(1S)-4-guanidino-1-[2-(2,3,5,6-tetrafluorophenoxy)acetyl]butyl]cyclopentanecarboxamide]	< 0.001 µM	IC50 [3]: < 0.0005 µM; IC50 [4]: > 0.15 µM; Plasma concentration over time ([5]; Pluronic F127 versus carboxymethylcellulose): increased concentration; AUC(0-t) ([5]; in 2% carboxymethylcellulose): 0.687 µg·h/mL; AUC(0-t) ([5]; in 25% Pluronic F127): 2.12 µg·h/mL; Rescue of cells from P. gingivalis toxicity [6]: can rescue; also recorded: prevented the toxicity; P. gingivalis DNA in brain tissue by qPCR [7]: demonstrates efficacy; Degradation of collagen type I by P. gingivalis culture supernatant [8]: prevent degradation of collagen
	[N-]=[N+]=Nc1cccc(C(=O)N[C@@H](CCCNC(=N)N)C(=O)COc2c(F)c(F)cc(F)c2F)c1 [Compound 14, 3-azido-N-[(1S)-4-guanidino-1-[2-(2,3,5,6-tetrafluorophenoxy)acetyl]butyl]benzamide]		IC50 [3]: < 0.0005 µM; IC50 [4]: > 0.45 µM
	CN(NC(=O)CC[C@H](NC(=O)OCc1ccccc1)C(=O)N[C@@H](CCCCN)C(=O)C(=O)NCc1ccccc1)c1ccccc1 [Kyt-36]		Half-life [9]: increases the half-life

Structure (SMILES)	IC50 [2]	IC50 [1]	also measured
N=C(N)NCCCC(NC(=O)[C@H]1CC[C@@H](N)C1)C(=O)c1nc2ccccc2s1 (single isomer, unassigned) [Compound 10]	> 1 µM		
CC[C@H](NC(C)=O)C(=O)NC(CCCNC(=N)N)C(=O)c1nc2ccccc2s1 (single isomer, unassigned) [Compound 11]	> 0.04 µM		
CCCC(=O)N[C@@H](CCCNC(=N)N)C(=O)c1nc2ccccc2s1 [Compound 2, N-[(1S)-1-(1,3-benzothiazole-2-carbonyl)-4-guanidino-butyl]butanamide]	> 1 µM	< 0.002 µM	
N=C(N)NCCC[C@H](NC(=O)c1ccccc1)C(=O)c1nc2ccccc2s1 [Compound 3, N-[(1S)-1-(1,3-benzothiazole-2-carbonyl)-4-guanidino-butyl]benzamide]	> 1 µM	< 0.002 µM	
